Results on 36 compounds are retold here after patent US10196391B2 (Hoffmann-La Roche Inc., priority 2014, dated 2019).

The test system of this test is HBsAg. Put plainly: HBsAg assay (CLIA) in HepG2.2.15 cells. In kind it is cell-based, HBV. To be noted: Hepatitis B virus, HepG2.2.15, read-out: IC50 (HBsAg assay). How it is done: HepG2.2.15 cells (Acs et al. Proc Natl Acad Sci USA, 84, (1987), 4641-4), a constitutively HBV-expressing cell line were cultured in DMEM+Glutamax-I medium (Invitrogen, Carlsbad, Calif., USA), supplemented with 10% fetal bovine serum (Invitrogen) and G418 (Invitrogen) at a final concentration of 200 mg/L and maintained in 5% CO2 at 37° C.
HepG2.2.15 cells were seeded in duplicate into white, 96-well plates at 1.5×10^4 cells/well. The cells were treated with a three-fold serial dilution series of the compounds in DMSO. The final DMSO concentration in all wells was 1% and DMSO was used as no drug control.
The HBsAg chemiluminescence immunoassay (CLIA) kit (Autobio Diagnostics Co., Zhengzhou, China, Catalog number: CL0310-2) was used to measure the levels of secreted HBV antigens semi-quantitatively. For the detection 50 μL/well culture supernatant was used and HBsAg was quantified using HBsAg chemiluminescence immunoassay (CLIA) kit (Autobio Diagnostics Co., Zhengzhou, China, Catalog number: CL0310-2), 50 μL of the supernatant was transferred to the CLIA assay plate and 50 μL of enzyme conjugate reagent was added into each well. The plates were sealed and gently agitated for 1 hour at room temperature. The supernatant-enzyme-mixture was discarded and wells were washed 6 times with 300 μL of PBS. The residual liquid was removed by plating the CLIA plate […] on absorbent tissue paper. 25 μL of substrates A and B were added to each well. Luminance was measured using a luminometer (Mithras LB 940 Multimode Microplate Reader) after 10 minutes incubation. Dose-response curves were generated and the IC50 value was extrapolated by using the E-WorkBook Suite (ID Business Solutions Ltd., Guildford, UK). The IC50 was defined as the compound concentration (or conditioned media log dilution) at which HBsAg secretion was reduced by 50% compared to the no drug control.
The compounds according to formula I were tested for their capacity to inhibit HBsAg as described herein.
In general, IC50 refers to the concentration that gives 50% inhibition. For `CCOC(=O)c1ccc(N2CCc3nc(-c4ccccn4)ncc3C2)cc1` [Example 31, ethyl 4-[2-(2-pyridyl)-7,8-dihydro-5H-pyrido[4,3-d]pyrimidin-6-yl]benzoate], the IC50 was found to be 16.9 µM.

In the case of `O=C(O)c1ccc(N2CCc3nc(-c4ccccn4)ncc3C2)cc1` [Example 32, 4-[2-(2-pyridyl)-7,8-dihydro-5H-pyrido[4,3-d]pyrimidin-6-yl]benzoic acid], the IC50 is 9.75 µM.

On to `COc1cc(N2CCc3nc(-c4ncccn4)ncc3C2)cc(Cl)c1F` [Example 79, 6-(3-chloro-4-fluoro-5-methoxy-phenyl)-2-pyrimidin-2-yl-7,8-dihydro-5H-pyrido[4,3-d]pyrimidine], for which the IC50 was found to be 0.288 µM.

On to `Fc1cc(C2CC2)cc(N2CCc3nc(-c4ncccn4)ncc3C2)c1` [Example 42, 6-(3-cyclopropyl-5-fluoro-phenyl)-2-pyrimidin-2-yl-7,8-dihydro-5H-pyrido[4,3-d]pyrimidine], for which the IC50 is 0.566 µM.

`c1ccc(-c2ncc3c(n2)CCN(c2ncccn2)C3)nc1` [Example 37, 2-(2-pyridyl)-6-pyrimidin-2-yl-7,8-dihydro-5H-pyrido[4,3-d]pyrimidine]: the IC50 worked out at 4.45 µM.

`Fc1ccc(N2CCc3nc(-c4ccccn4)ncc3C2)c(OCc2ccccc2)c1` [Example 38, 6-(2-benzyloxy-4-fluoro-phenyl)-2-(2-pyridyl)-7,8-dihydro-5H-pyrido[4,3-d]pyrimidine]: the IC50 amounted to 17.7 µM.

As to `Cc1cc(F)cc(N2CCc3nc(-c4ccccn4)ncc3C2)c1` [Example 40, 6-(3-fluoro-5-methyl-phenyl)-2-(2-pyridyl)-7,8-dihydro-5H-pyrido[4,3-d]pyrimidine], the IC50 came out at 0.669 µM.

Regarding `NC(=O)c1cc(F)cc(N2CCc3nc(-c4ncccn4)ncc3C2)c1` [Example 105, 3-fluoro-5-(2-pyrimidin-2-yl-7,8-dihydro-5H-pyrido[4,3-d]pyrimidin-6-yl)benzamide], the IC50 worked out at 18.1 µM.

Turning to `COc1cc(N2CCc3nc(-c4ccccn4)ncc3C2)cc(F)c1F` [Example 17, 6-(3,4-difluoro-5-methoxy-phenyl)-2-(2-pyridyl)-7,8-dihydro-5H-pyrido[4,3-d]pyrimidine], the IC50 is 0.154 µM.

For `CS(=O)(=O)c1ccc(N2CCc3nc(-c4ccc(F)cn4)ncc3C2)cc1` [Example 2, 2-(5-fluoro-2-pyridyl)-6-(4-methylsulfonylphenyl)-7,8-dihydro-5H-pyrido[4,3-d]pyrimidine], the IC50 was 10.2 µM.

Turning to `COc1ccc(N2CCc3nc(-c4ccccn4)ncc3C2)cc1OC` [Example 59, 6-(3,4-dimethoxyphenyl)-2-(2-pyridyl)-7,8-dihydro-5H-pyrido[4,3-d]pyrimidine], the IC50 worked out at 9.06 µM.

Turning to `OCCCOc1cc(N2CCc3nc(-c4ccccn4)ncc3C2)cc(F)c1F` [Example 93, 3-[2,3-difluoro-5-[2-(2-pyridyl)-7,8-dihydro-5H-pyrido[4,3-d]pyrimidin-6-yl]phenoxy]propan-1-ol], the IC50 came to 0.314 µM.

Consider `COc1ccnc(-c2ncc3c(n2)CCN(c2cc(F)c(F)c(OC)c2)C3)c1` [Example 24, 6-(3,4-difluoro-5-methoxy-phenyl)-2-(4-methoxy-2-pyridyl)-7,8-dihydro-5H-pyrido[4,3-d]pyrimidine], for which the IC50 was 1.86 µM.

On to `COc1ccnc(N2CCc3nc(-c4ccccn4)ncc3C2)c1F` [Example 70, 6-(3-fluoro-4-methoxy-2-pyridyl)-2-(2-pyridyl)-7,8-dihydro-5H-pyrido[4,3-d]pyrimidine], for which the IC50 stood at 1.55 µM.

`Clc1ccc(N2CCc3nc(-c4ccccn4)ncc3C2)nc1` [Example 36, 6-(5-chloro-2-pyridyl)-2-(2-pyridyl)-7,8-dihydro-5H-pyrido[4,3-d]pyrimidine]: the IC50 came out at 1.54 µM.

As for `COc1cc(Cl)cc(N2CCc3nc(-c4ncccn4)ncc3C2)n1` [Example 115, 6-(4-chloro-6-methoxy-2-pyridyl)-2-pyrimidin-2-yl-7,8-dihydro-5H-pyrido[4,3-d]pyrimidine], the 50% inhibitory concentration (IC50) was 0.352 µM.

Take `Fc1cc(F)nc(N2CCc3nc(-c4ncccn4)ncc3C2)c1` [Example 110, 6-(4,6-difluoro-2-pyridyl)-2-pyrimidin-2-yl-7,8-dihydro-5H-pyrido[4,3-d]pyrimidine]: the IC50 turned out to be 1.44 µM.

In the case of `COc1cc(F)cc(N2CCc3nc(-c4ncccn4)ncc3C2)c1` [Example 117, 6-(3-fluoro-5-methoxy-phenyl)-2-pyrimidin-2-yl-7,8-dihydro-5H-pyrido[4,3-d]pyrimidine], the IC50 was 0.157 µM.

In the case of `COc1c(N2CCc3nc(-c4ncccn4)ncc3C2)ccc(F)c1F` [Example 30, 6-(3,4-difluoro-2-methoxy-phenyl)-2-pyrimidin-2-yl-7,8-dihydro-5H-pyrido[4,3-d]pyrimidine], the IC50 stood at 9.49 µM.

As to `CCCCOc1cc(N2CCc3nc(-c4ccccn4)ncc3C2)ccc1C(=O)O` [Example 67, 2-butoxy-4-[2-(2-pyridyl)-7,8-dihydro-5H-pyrido[4,3-d]pyrimidin-6-yl]benzoic acid], the IC50 worked out at 7.79 µM.

Regarding `COCCCNC(=O)c1cc(F)cc(N2CCc3nc(-c4ncccn4)ncc3C2)c1` [Example 106, 3-fluoro-N-(3-methoxypropyl)-5-(2-pyrimidin-2-yl-7,8-dihydro-5H-pyrido[4,3-d]pyrimidin-6-yl)benzamide], the IC50 is 1.34 µM.

In the case of `Cc1nc(-c2ccccn2)nc2c1CN(c1ccc(S(C)(=O)=O)cc1)CC2` [Example 87], the IC50 was found to be 10.3 µM.

Take `COc1ncc(Cl)c(N2CCc3nc(-c4ccccn4)ncc3C2)n1` [Example 69, 6-(5-chloro-2-methoxy-pyrimidin-4-yl)-2-(2-pyridyl)-7,8-dihydro-5H-pyrido[4,3-d]pyrimidine]: the IC50 is 0.999 µM.

In the case of `COc1cc(N2CCc3nc(-c4ccccn4)ncc3C2)ccc1Cl` [Example 62, 6-(4-chloro-3-methoxy-phenyl)-2-(2-pyridyl)-7,8-dihydro-5H-pyrido[4,3-d]pyrimidine], the IC50 came to 1.34 µM.

For the compound `c1ccc(-c2ncc3c(n2)CCN(c2cccnc2)C3)nc1` [Example 39, 2-(2-pyridyl)-6-(3-pyridyl)-7,8-dihydro-5H-pyrido[4,3-d]pyrimidine], the IC50 amounted to 9.12 µM.

For `COc1cc(N2CCc3nc(-c4ncccn4)ncc3C2)cc(F)n1` [Example 112, 6-(2-fluoro-6-methoxy-4-pyridyl)-2-pyrimidin-2-yl-7,8-dihydro-5H-pyrido[4,3-d]pyrimidine], the IC50 is 0.553 µM.

With `CS(=O)(=O)c1ccc(N2CCc3nc(-c4ccccn4)ncc3C2)cc1` [Example 1, 6-(4-methylsulfonylphenyl)-2-(2-pyridyl)-7,8-dihydro-5H-pyrido[4,3-d]pyrimidine], the IC50 was 4.24 µM.

Take `COc1cc(N2CCc3nc(-c4ccccn4)ncc3C2)ncc1F` [Example 71, 6-(5-fluoro-4-methoxy-2-pyridyl)-2-(2-pyridyl)-7,8-dihydro-5H-pyrido[4,3-d]pyrimidine]: the IC50 turned out to be 0.33 µM.

Consider `CCOc1cc(N2CCc3nc(-c4ccccn4)ncc3C2)cc(F)c1F` [Example 21, 6-(3-ethoxy-4,5-difluoro-phenyl)-2-(2-pyridyl)-7,8-dihydro-5H-pyrido[4,3-d]pyrimidine], for which the IC50 stood at 0.321 µM.

Turning to `CCOc1nc(-c2ccccn2)nc2c1CN(c1ccc(S(C)(=O)=O)cc1)CC2` [Example 82], the IC50 is 3.35 µM.

As to `CS(=O)(=O)c1ccc(N2CCc3nc(-c4ccccn4)nc(OCc4ccccc4)c3C2)cc1` [Example 83], the IC50 is 20 µM.

On to `Cc1ccc(-c2ncc3c(n2)CCN(c2ccc(S(C)(=O)=O)cc2)C3)nc1` [Example 3, 2-(5-methyl-2-pyridyl)-6-(4-methylsulfonylphenyl)-7,8-dihydro-5H-pyrido[4,3-d]pyrimidine], for which the IC50 came to 9.22 µM.

On to `COc1cc(N2CCc3nc(-c4ncccn4)ncc3C2)cc(C(F)(F)F)c1` [Example 100, 6-[3-methoxy-5-(trifluoromethyl)phenyl]-2-pyrimidin-2-yl-7,8-dihydro-5H-pyrido[4,3-d]pyrimidine], for which the IC50 was determined as 0.278 µM.

Take `COc1cc(F)cc(N2CCc3nc(-c4ncccn4)ncc3C2)n1` [Example 111, 6-(4-fluoro-6-methoxy-2-pyridyl)-2-pyrimidin-2-yl-7,8-dihydro-5H-pyrido[4,3-d]pyrimidine]: the IC50 is 0.362 µM.

Turning to `Clc1ccc(N2CCc3nc(-c4ccccn4)ncc3C2)cc1` [Example 45, 6-(4-chlorophenyl)-2-(2-pyridyl)-7,8-dihydro-5H-pyrido[4,3-d]pyrimidine], the IC50 was determined as 3.23 µM.

As to `COc1cccc(-c2ncc3c(n2)CCN(c2cc(F)c(F)c(OC)c2)C3)n1` [Example 25, 6-(3,4-difluoro-5-methoxy-phenyl)-2-(6-methoxy-2-pyridyl)-7,8-dihydro-5H-pyrido[4,3-d]pyrimidine], the IC50 stood at 16 µM.
